From patent US12503451B2, “2-arylthiazole derivative or salt thereof, preparation method therefor, and pharmaceutical composition comprising same” (HEXAPHARMATEC CO., LTD., priority 2020, dated 2025)

Experiments:
[1] = system: dimethylnitrosamine (DMN)-induced liver injury male SD rats; assay: Liver function-improving activities by oral administration in the liver injury model (1); format: in vivo, rat; settings: 25 mg/kg oral once a day with DMN
Description: The compounds according to the present invention were orally administered to dimethylnitrosamine (DMN)-induced liver injury male SD rats for 3 weeks, so as to evaluate liver function-improving activities. Specifically, 7-week-old male SD rats (Orient Bio, Korea) were accommodated to the laboratory environment at room temperature for 7 days. General symptoms were observed and then only healthy animals were used for the experiment. […] DMN was dissolved in purified water and then administered intraperitoneally at the dose of 10 mg/kg for 3 consecutive days per week (3 times per week, for 4 weeks). […] The collected blood was injected into a vacutainer tube containing a clot activator and then allowed to stand at room temperature for about 20 minutes so as to coagulate each blood sample. After centrifugation for 10 minutes, the resulting serums were subjected to blood-biochemical tests. The results obtained from the measurements were subject to group comparison, through parametric multiple comparisons or non-parametric multiple comparisons, with SPSS. When P<0.05, it was determined to be statistically significant.

[2] = system: dimethylnitrosamine (DMN)-induced liver injury male SD rats; assay: Liver function-improving activities by oral administration in the liver injury model (2); format: in vivo, rat; settings: for Inhibitory activity against liver fibrosis (in words) / Degenerative hepatocyte numbers / Inflammatory cell numbers / Collagen fiber occupied regions: 25 mg/kg oral 4 weeks; for Inhibitory activity against liver fibrosis (in words): histology; for Degenerative hepatocyte numbers / Inflammatory cell numbers: H&E staining of liver; for Degenerative hepatocyte numbers / Inflammatory cell numbers / Collagen fiber occupied regions: autopsy 24 hours after last administration; for Collagen fiber occupied regions: Masson's trichrome staining of liver
Description: Specifically, 7-week-old male SD rats (Orient Bio, Korea) were accommodated to the laboratory environment at room temperature for 7 days. General symptoms were observed and then only healthy animals were used for the experiment. The rats were divided into 5 groups (n=10 for each group), i.e., the normal control group, the group to which only DMN is administered, and the group to which both the compound of the present invention (the compound of Example 23, 26, or 29) and DMN are administered. DMN was dissolved in purified water and then administered intraperitoneally at the dose of 10 mg/kg for 3 consecutive days per week (3 times per week, for 4 weeks). Blood samples were collected after the completion of the fourth-week liver injury inducement and then the serum ALT (Alanine Transaminase) values and the serum AST (Aspartate Transaminase) values were measured so as to confirm the liver injury thereof. […] Blood samples were collected on Day 0 (1 day after the completion of the fourth-week liver injury inducement) and Day 7, 14, 21 and 28 after the administration of the test materials. The collected blood was injected into a vacutainer tube containing a clot activator and then allowed to stand at room temperature for about 20 minutes so as to coagulate each blood sample. After centrifugation for 10 minutes, the resulting serums were subjected to blood-biochemical tests. In addition, at 24 hours after the last administration, an autopsy for hepatectomy and fixation was performed to prepare the tissue specimens thereof. After preparing the slides with the tissue specimens, hematoxylin and eosin (H&E) staining was performed thereon for microscopic observation of damages to liver tissue and inflammatory cell infiltrations in liver tissues. In addition, Masson's trichrome staining was also performed thereon for microscopic observation of collagen fiber depositions in liver tissues. The results obtained from the measurements were subject to group comparison, through parametric multiple comparisons or non-parametric multiple comparisons, with SPSS. When P<0.05, it was determined to be statistically significant. […] Therefore, it can be confirmed that the compounds of the present invention have excellent treating activity against liver fibrosis. […] From the results of FIG. 4, the degrees of damage to liver tissue and inflammatory cell infiltration in liver tissues were measured. And also, from the results of FIG. 4, the degree of collagen fiber deposition in liver tissues was measured.

N2a cells = assay: Autophagy flux by electron microscope imaging; format: cell-based, mouse; settings: 10 μM; 24 hours
Description: N2a cells (ATCC, CCL-131, mouse neuroblastoma cell line) (3×10^4 cells) and a medium (DMEM (Dulbecco's modified Eagle's medium, Gibco, 11995-065) supplemented with 5% heat-inactivated fetal bovine serum, FBS; Gibco, 16000-044) and 50 μg/ml penicillin-streptomycin (Gibco, 15140-122) were added to each well of a 6-well plate and incubated overnight at 37° C. in a CO2 incubator. The compound of Example 29 (5 μM) and rapamycin (10 μM) were respectively treated and then incubated at 37° C. in a CO2 incubator for 24 hours. Three wells per each group were subject to electron microscope block formation and then pre-fixation, post-fixation, dehydration, substitution, and embedding were carried out according to a flat-embedding method. After ultra-thin sections having a thickness of 70 nm were prepared, heavy metal staining (uranyl acetate, lead citrate) was carried out on the each section, which was photographed through a mosaic imaging technique for imaging the entire cells. In addition, the results obtained by measuring the numbers of the total autophagies (autophagic vesicles), autophagosomes, and autolysosomes per cell according to the treatment groups are shown in Table 3 below. In Table 3 below, the control means the untreated control.

[3] = system: primary mouse cortical neuron cells; assay: Autophagic vesicle formation (CYTO-ID Autophagy Detection Kit); format: cell-based; settings: 10 μM; 24 hours; untreated control = 1
Description: Autophagy lysosomal pathway (ALP) activation by the compounds of the present invention was verified, through measuring the degree of autophagic vesicle formation in neuron cells with the CYTO-ID™ Autophagy Detection Kit (ENZ-51031-K200, Enzo Life Sciences, Inc.). Neuron cells (i.e., primary mouse cortical neuron cells) were isolated from mice using an enzymatic digest method. Specifically, primary mouse cortical neuron cells were isolated by incubating the cortice tissues derived from 16 day embryonic C57BL6 mice, at 37° C. for 30 minutes, with 20 U/ml papain (Worthington Biochemical Corporation, LK003176) and 0.005% DNase I (Worthington Biochemical Corporation, LK003170).
The primary mouse cortical neuron cells (8×10^4 cells) and a medium (a neural cell culture media containing 2 mM L-glutamine (Gibco, 25030-081), N2 supplement (Gibco, 17502-048), B27 supplement (Gibco, 17504-044), and 50 μg/ml penicillin-streptomycin (Gibco, 15140-122)) were added to each well of a 96-well plate and then incubated overnight at 37° C. in a CO2 incubator. The compound of Example 10 (5 μM), the compound of Example 29 (5 μM), and rapamycin (10 μM) were respectively treated to the cells, which were incubated at 37° C. in a CO2 incubator for 24 hours. After each well was washed with 1×Assay Buffer (Enzo Life Science, ENZ-51031-K200), 0.2 μl of Cyto-ID autophagy dye and 0.1 μl of Hoechst 33342 were treated to the cells, which were incubated at 37° C. in a CO2 incubator for 30 minutes. After each well was washed with 1×Assay Buffer (Enzo Life Science, ENZ-51031-K200), the fluorescence values of Cyto-ID (EX: 480 nm, EM: 530 nm) and Hoechst 33342 (EX: 340 nm, EM: 480 nm) were respectively measured with a fluorometer. Three wells were tested for each group. After normalization was carried out through dividing the Cyto-ID fluorescence value of each well by Hoechst 33342 fluorescence value, each relative intensity was calculated by setting that of the untreated control to 1.

[4] = 0 week (Day 0, before administration)
[5] = 0 week (Day 0, after 4 weeks DMN, before administration)
[6] = 1 week, 25 mg/kg oral once a day after 4 weeks DMN
[7] = 2 weeks, 25 mg/kg oral once a day after 4 weeks DMN
[8] = 3 weeks, 25 mg/kg oral once a day after 4 weeks DMN
[9] = 4 weeks, 25 mg/kg oral once a day after 4 weeks DMN

Row | SMILES | ALT values (average value) [1, 4] | AST values (average value) [1, 4] | ALT values (average value) ([1]; 1 week) | AST values (average value) ([1]; 1 week) | ALT values (average value) ([1]; 2 weeks) | AST values (average value) ([1]; 2 weeks) | ALT values (average value) ([1]; 3 weeks) | AST values (average value) ([1]; 3 weeks) | ALT values (average value) [2, 5] | AST values (average value) [2, 5] | Inhibitory activity against liver fibrosis (in words) [2] | ALT values (average value) [2, 6] | AST values (average value) [2, 6] | ALT values (average value) [2, 7] | AST values (average value) [2, 7] | ALT values (average value) [2, 8] | AST values (average value) [2, 8] | ALT values (average value) [2, 9] | AST values (average value) [2, 9] | Degenerative hepatocyte numbers [2] | also measured
1 | Cc1nc(-c2ccc(OCC(C)C)c(C#N)c2)sc1C(=O)NCCN(C(C)C)C(C)C.Cl [Example 2, N-(2-(diisopropylamino)ethyl)-2-(3-cyano-4-isobutoxyphenyl)-4-methylthiazole-5-carboxamide hydrochloride] | 70.76 U/L | 138.50 U/L | 93.68 U/L | 180.72 U/L | 107.06 U/L | 218.90 U/L | 117.02 U/L | 231.54 U/L | – | – | – | – | – | – | – | – | – | – | – | – | –
2 | CCN(CC)CCOc1ccc(-c2nc(C)c(C(=O)NCCN(C(C)C)C(C)C)s2)cc1C#N.Cl.Cl [Example 23, N-(2-(diisopropylamino)ethyl)-2-(4-(2-diethylamino)ethoxy-3-cyanophenyl)-4-methylthiazole-5-carboxamide hydrochloride] | 67.64 U/L | 145.10 U/L | 94.40 U/L | 208.56 U/L | 97.64 U/L | 221.58 U/L | 101.04 U/L | 203.44 U/L | 198.30 U/L | 395.34 U/L | excellent inhibitory activity against liver fibrosis | 104.22 U/L | 169.11 U/L | 65.66 U/L | 140.57 U/L | 60.95 U/L | 128.30 U/L | 52.93 U/L | 125.15 U/L | 319.14 ± 44.66 cells/1000 cells | Inflammatory cell numbers [2]: 101.43 ± 16.53 cells/mm^2; Collagen fiber occupied regions [2]: 12.44 ± 2.03 %/mm^2
3 | CCN(CC)CCOc1ccc(-c2nc(C)c(C(=O)NCCN3CCOCC3)s2)cc1C#N.Cl.Cl [Example 26, N-(2-(4-morpholino)ethyl)-2-(4-(2-diethylamino)ethoxy-3-cyanophenyl)-4-methylthiazole-5-carboxamide hydrochloride] | – | – | – | – | – | – | – | – | 199.51 U/L | 322.72 U/L | excellent inhibitory activity against liver fibrosis | 134.97 U/L | 153.48 U/L | 70.09 U/L | 145.71 U/L | 62.81 U/L | 138.76 U/L | 59.12 U/L | 114.45 U/L | 259.14 ± 42.56 cells/1000 cells | AST value compared with the normal control group (in words) ([2]; 4 weeks after the administration, 25 mg/kg oral): equivalent to that of the normal control group; Inflammatory cell numbers [2]: 90.00 ± 20.67 cells/mm^2; Collagen fiber occupied regions [2]: 10.75 ± 2.17 %/mm^2
4 | CO[C@H]1C[C@@H]2CC[C@@H](C)[C@@](O)(O2)C(=O)C(=O)N2CCCC[C@H]2C(=O)O[C@H]([C@H](C)C[C@@H]2CC[C@@H](O)[C@H](OC)C2)CC(=O)[C@H](C)/C=C(\C)[C@@H](O)[C@@H](OC)C(=O)[C@H](C)C[C@H](C)/C=C/C=C/C=C/1C [Rapamycin, rapamycin, reference compound] | – | – | – | – | – | – | – | – | – | – | – | – | – | – | – | – | – | – | – | – | Numbers of the autophagy per cell: Autolysosome (N2a cells): 7.6; Numbers of the autophagy per cell: Autophagic vesicles (N2a cells): 13.3; Numbers of the autophagy per cell: Autophagosome (N2a cells): 4.1; Cyto-ID fluorescence value (relative intensity) [3]: 1.668
